Measurements: patent US20200163984A1, “USE OF ISOVALERYL SPIRAMYCIN I, II AND/OR III IN MANUFACTURING MEDICAMENT FOR TREATING AND/OR PREVENTING TUMOR, AND MEDICAMENT” (SHENYANG FUYANG PHARMACEUTICAL TECHNOLOGY CO., LTD., priority 2017, published 2020)
Read-outs that look alike come from different tables or passages of the source.

Columns and labels:
[1] = system: transplanted tumor of human non-small cell lung cancer cell H1299
Method: (§1) Then cell concentration was adjusted to 1×10^7/ml with matrigel, then each nude mouse was inoculated subcutaneously with 0.2 ml of cells at its right armpit and recorded as the first day of inoculation. When the tumor grows to be greater than or equal to 100 mm^3, the mice were randomly divided into 11 groups with 6 mice in each group: isovaleryl spiramycin I groups with doses of 25, 50 and 100 mg/kg, isovaleryl spiramycin II groups with doses of 25, 50 and 100 mg/kg, and isovaleryl spiramycin III groups with doses of 25, 50 and 100 mg/kg. Each group was continuously administered intragastrically for 30 days with a dose of 20 ml/kg. The mice were sacrificed the next day after drug withdrawal and the indicators were tested. The long diameter and short diameter of the tumor, and the body weight of each mouse were recorded every 3 days from drug administration to nude mouse sacrifice.
(§2) The body weight of the nude mice and the long diameter (a) and short diameter (b) of the transplanted tumor were measured every 3 days, and the tumor volume (v), relative tumor volume (RTV) and relative tumor proliferation rate (T/C) are calculated respectively according to the following formulas, wherein V=a×b^2/2; RTV=V/V0 (V0 is the tumor volume before administration, V is the tumor volume before sacrifice), and T/C (%)=treatment group RTV/model control group RTV×100%.
(§3) Each mouse was weighed and sacrificed. After the tumor was completely stripped off from the body of the mouse, the non-tumor tissues such as blood stains and fat were removed to weigh the tumor and calculate the tumor growth inhibition rate. The average tumor weight of each group of mice is used as an indicator of efficacy. Tumor growth inhibition rate (%)=(1−the average tumor weight of the treatment group/the average tumor weight of the model group)×100%.

[2] = system: transplanted tumor of human breast cancer cell MCF-7; test: MCF-7 transplanted tumor in nude mice
Method: as §1, with “group: a model group, a cyclophosphamide group,” for “group:”
as §2, §3

[3] = system: transplanted tumor of human pancreatic cancer cell PANC-1; test: PANC-1 transplanted tumor in nude mice; details: PANC-1
Method: as §1, with “group: a model group, a cyclophosphamide group,” for “group:”
as §2, §3

[4] = H1299, 25 mg/kg (low dose) i.g. 30 days
[5] = H1299, 50 mg/kg (medium dose) i.g. 30 days
[6] = H1299, 100 mg/kg (high dose) i.g. 30 days
[7] = MCF-7, 25 mg/kg (low dose) i.g. 30 days
[8] = MCF-7, 50 mg/kg (medium dose) i.g. 30 days
[9] = MCF-7, 100 mg/kg (high dose) i.g. 30 days
[10] = 12.5 mg/kg (low dose) i.g. 30 days

**Q.** With CCC(=O)O[C@@H]1CC(=O)O[C@H](C)C/C=C/C=C/[C@H](O[C@H]2CC[C@H](N(C)C)[C@@H](C)O2)[C@H](C)C[C@H](CC=O)[C@H](O[C@@H]2O[C@H](C)[C@@H](O[C@H]3C[C@@](C)(O)[C@@H](OC(=O)CC(C)C)[C@H](C)O3)[C@H](N(C)C)[C@H]2O)[C@H]1OC [Isovaleryl spiramycin III, isovaleryl spiramycin III] as the compound, how does the “Inhibition Rate (tumor growth inhibition rate)” value (“Inhibition Rate” for short) [1, 4] read?
**A.** 13.11%

**Q.** And the “Relative Tumor Proliferation Rate (T/C)” value [1, 4]?
**A.** 89.88%

**Q.** And the “Relative Tumor Volume (RTV)” value [1, 4]?
**A.** 11.52 ± 2.51

**Q.** And the “Tumor Volume (d 1)” value [1, 4]?
**A.** 137.58 ± 14.95 mm3

**Q.** And the “Tumor Volume (d 30)” value [1, 4]?
**A.** 1565.97 ± 277.97 mm3

**Q.** What about the “Tumor Weight” value [1, 4] of the same compound?
**A.** 1.51 ± 0.30 g

**Q.** What about the “Inhibition Rate” value [1, 5] of the same compound?
**A.** 49.38%

**Q.** What about the “Relative Tumor Proliferation Rate (T/C)” value [1, 5] of the same compound?
**A.** 48.11%

**Q.** And the “Relative Tumor Volume (RTV)” value [1, 5]?
**A.** 6.17 ± 2.64

**Q.** And the “Tumor Volume (d 1)” value [1, 5]?
**A.** 137.82 ± 17.12 mm3

**Q.** What about the “Tumor Volume (d 30)” value [1, 5] of the same compound?
**A.** 816.87 ± 299.03 mm3

**Q.** And the “Tumor Weight” value [1, 5]?
**A.** 0.88 ± 0.20 g

**Q.** What about the “Inhibition Rate” value [1, 6] of the same compound?
**A.** 62.78%

**Q.** And the “Relative Tumor Proliferation Rate (T/C)” value [1, 6]?
**A.** 32.43%

**Q.** What about the “Relative Tumor Volume (RTV)” value [1, 6] of the same compound?
**A.** 4.16 ± 1.90

**Q.** What about the “Tumor Volume (d 1)” value [1, 6] of the same compound?
**A.** 137.09 ± 12.95 mm3

**Q.** What about the “Tumor Volume (d 30)” value [1, 6] of the same compound?
**A.** 557.82 ± 209.73 mm3

**Q.** What about the “Tumor Weight” value [1, 6] of the same compound?
**A.** 0.65 ± 0.17 g

**Q.** And the “tumor volume and relative tumor volume compared with the model group” value ([1]; H1299, low, medium and high doses, P<0.05)?
**A.** significantly lower

**Q.** And the “mouse weight compared with the model group” value ([1]; mouse, in vivo)?
**A.** no significant changes

**Q.** And the “Inhibition Rate” value [2, 7]?
**A.** 26.75%

**Q.** And the “Relative Tumor Proliferation Rate (T/C)” value [2, 7]?
**A.** 75.03%

**Q.** And the “Relative Tumor Volume (RTV)” value [2, 7]?
**A.** 13.13 ± 3.15

**Q.** What about the “Tumor Volume (d 1)” value [2, 7] of the same compound?
**A.** 137.99 ± 20.99 mm3

**Q.** And the “Tumor Volume (d 30)” value [2, 7]?
**A.** 1758.49 ± 129.06 mm3

**Q.** And the “Tumor Weight” value [2, 7]?
**A.** 1.99 ± 0.81 g

**Q.** What about the “Inhibition Rate” value [2, 8] of the same compound?
**A.** 39.09%

**Q.** What about the “Relative Tumor Proliferation Rate (T/C)” value [2, 8] of the same compound?
**A.** 54.92%

**Q.** And the “Relative Tumor Volume (RTV)” value [2, 8]?
**A.** 9.61 ± 1.66

**Q.** What about the “Tumor Volume (d 1)” value [2, 8] of the same compound?
**A.** 109.95 ± 13.42 mm3

**Q.** What about the “Tumor Volume (d 30)” value [2, 8] of the same compound?
**A.** 1043.33 ± 113.01 mm3

**Q.** And the “Tumor Weight” value [2, 8]?
**A.** 1.66 ± 0.66 g

**Q.** What about the “Inhibition Rate” value ([2]; MCF-7, 50 mg/kg (medium dose) i.g. 30 days, listed as isovaleryl spiramycin III) of the same compound?
**A.** 39.08%

**Q.** What about the “Inhibition Rate” value [2, 9] of the same compound?
**A.** 61.78%

**Q.** What about the “Relative Tumor Proliferation Rate (T/C)” value [2, 9] of the same compound?
**A.** 34.90%

**Q.** And the “Relative Tumor Volume (RTV)” value [2, 9]?
**A.** 5.17 ± 0.64

**Q.** What about the “Tumor Volume (d 1)” value [2, 9] of the same compound?
**A.** 113.14 ± 9.02 mm3

**Q.** And the “Tumor Volume (d 30)” value [2, 9]?
**A.** 684.21 ± 115.00 mm3

**Q.** And the “Tumor Weight” value [2, 9]?
**A.** 1.03 ± 0.54 g

**Q.** And the “Relative Tumor Proliferation Rate (T/C)” value ([2]; MCF-7, 100 mg/kg (high dose) i.g. 30 days, listed as isovaleryl spiramycin III)?
**A.** 34.91%

**Q.** What about the “tumor volume and relative tumor volume compared with the model group” value ([2]; MCF-7, low, medium and high doses, P<0.05) of the same compound?
**A.** significantly lower

**Q.** And the “mouse weight compared with the model group” value ([2]; mouse, in vivo)?
**A.** no significant changes

**Q.** What about the “Inhibition Rate” value [3, 10] of the same compound?
**A.** 26.75%

**Q.** What about the “Tumor Weight” value [3, 10] of the same compound?
**A.** 1.99 ± 0.81 g

**Q.** What about the “Inhibition Rate” value ([3]; 25 mg/kg (medium dose) i.g. 30 days) of the same compound?
**A.** 39.09%
